Earlier results as cited in patent publication US7595079B2, “Nutritional conjunctive support therapy for recovery in animals following stress or illness” (Bomac Vets Plus, Inc., priority 2005, dated 2009).

Key:
[1] = system: jejunum villus; conditions: weaning of pigs; target value ≧339
[2] = system: jejunum crypt; conditions: malnourished rats; target value ≦150
[3] = system: small intestinal crypt; conditions: E. coli induced diarrhea in calves; target value ≦100

NC(=O)CC[C@H](N)C(=O)O [Glutamine]
Jejunum Villus Height [1]: 358 um | Jejunum Crypt depth [2]: 134 um | Mid plus Distal small intestinal Crypt width (mean % of baseline control) [3]: 92.2 mean % of baseline control
